Laboratory results reported in US20090018134A1, “Compounds - 945” (AstraZeneca AB, priority 2007, published 2009).
Like-named read-outs stand apart in the source and are kept apart here.

Biological target: T1, mTOR (Homo sapiens, UniProt P42345)
T1 construct: FLAG; made in house
Test: In Vitro mTOR Kinase Assay (Echo), Test (a)(ii)
Format: biochemical
Description: (a)(ii) In Vitro mTOR Kinase Assay (Echo)
The assay used AlphaScreen technology (Gray et al., Analytical Biochemistry, 2003, 313: 234-245) to determine the ability of test compounds to inhibit phosphorylation by recombinant mTOR.
A C-terminal truncation of mTOR encompassing amino acid residues 1362 to 2549 of mTOR (EMBL Accession No. L34075) was stably expressed as a FLAG-tagged fusion in HEK293 cells as described by Vilella-Bach et al., […], 1999, 274, 4266-4272. The HEK293 FLAG-tagged mTOR (1362-2549) stable cell line was routinely maintained at 37° C. with 5% CO2 up to a confluency of 70-90% in Dulbecco's modified Eagle's growth medium (DMEM; Invitrogen Limited, Paisley, UK Catalogue No. 41966-029) containing 10% heat-inactivated foetal calf serum (FCS; Sigma, Poole, Dorset, UK, Catalogue No. F0392), 1% L-glutamine (Gibco, Catalogue No. 25030-024) and 2 mg/ml Geneticin (G418 sulfate; Invitrogen Limited, UK Catalogue No. 1013 1-027). Following expression in the mammalian HEK293 cell line, expressed protein was purified using the FLAG epitope tag using standard purification techniques.
Aliquots (120 nl […]) of each compound dilution were acoustically dispensed placed using a Labcyte Echo 550 into a well of a Greiner 384-well low volume (LV) white polystyrene plate (Greiner Bio-one).
These assay solutions were incubated for 2 hours at room temperature.
Each reaction was stopped by the addition of […] of a mixture of EDTA (50 mM), bovine serum albumin (BSA; 0.5 mg/mL) and Tris-HCl pH 7.4 buffer (50 mM) containing p70 S6 Kinase (T389) 1A5 Monoclonal Antibody (Cell Signalling Technology, Catalogue No. 9206B) and AlphaScreen Streptavidin donor and Protein A acceptor beads (200 ng; Perkin Elmer, Catalogue No. 6760002B and 6760137R respectively) were added and the assay plates were left overnight at room temperature in the dark. The resultant signals arising from laser light excitation at 680 nm were read using a Packard Envision instrument.
The phosphorylated biotinylated peptide that is associated with AlphaScreen Streptavidin donor beads forms a complex with the p70 S6 Kinase (T389) 1A5 Monoclonal Antibody that is associated with Alphascreen Protein A acceptor beads. Upon laser light excitation at 680 nm, the donor bead: acceptor bead complex produces a signal that can be measured. Accordingly, the presence of mTOR kinase activity results in an assay signal. In the presence of an mTOR kinase inhibitor, signal strength is reduced.
mTOR enzyme inhibition for a given test compound was expressed as an IC50 value.

[1] = read-out: mTOR Kinase Assay (Echo)
[2] = table of enzyme assay Test (a)(ii), read-out: Test (a)(ii) IC50

T1 sequence (P42345 1362-2549): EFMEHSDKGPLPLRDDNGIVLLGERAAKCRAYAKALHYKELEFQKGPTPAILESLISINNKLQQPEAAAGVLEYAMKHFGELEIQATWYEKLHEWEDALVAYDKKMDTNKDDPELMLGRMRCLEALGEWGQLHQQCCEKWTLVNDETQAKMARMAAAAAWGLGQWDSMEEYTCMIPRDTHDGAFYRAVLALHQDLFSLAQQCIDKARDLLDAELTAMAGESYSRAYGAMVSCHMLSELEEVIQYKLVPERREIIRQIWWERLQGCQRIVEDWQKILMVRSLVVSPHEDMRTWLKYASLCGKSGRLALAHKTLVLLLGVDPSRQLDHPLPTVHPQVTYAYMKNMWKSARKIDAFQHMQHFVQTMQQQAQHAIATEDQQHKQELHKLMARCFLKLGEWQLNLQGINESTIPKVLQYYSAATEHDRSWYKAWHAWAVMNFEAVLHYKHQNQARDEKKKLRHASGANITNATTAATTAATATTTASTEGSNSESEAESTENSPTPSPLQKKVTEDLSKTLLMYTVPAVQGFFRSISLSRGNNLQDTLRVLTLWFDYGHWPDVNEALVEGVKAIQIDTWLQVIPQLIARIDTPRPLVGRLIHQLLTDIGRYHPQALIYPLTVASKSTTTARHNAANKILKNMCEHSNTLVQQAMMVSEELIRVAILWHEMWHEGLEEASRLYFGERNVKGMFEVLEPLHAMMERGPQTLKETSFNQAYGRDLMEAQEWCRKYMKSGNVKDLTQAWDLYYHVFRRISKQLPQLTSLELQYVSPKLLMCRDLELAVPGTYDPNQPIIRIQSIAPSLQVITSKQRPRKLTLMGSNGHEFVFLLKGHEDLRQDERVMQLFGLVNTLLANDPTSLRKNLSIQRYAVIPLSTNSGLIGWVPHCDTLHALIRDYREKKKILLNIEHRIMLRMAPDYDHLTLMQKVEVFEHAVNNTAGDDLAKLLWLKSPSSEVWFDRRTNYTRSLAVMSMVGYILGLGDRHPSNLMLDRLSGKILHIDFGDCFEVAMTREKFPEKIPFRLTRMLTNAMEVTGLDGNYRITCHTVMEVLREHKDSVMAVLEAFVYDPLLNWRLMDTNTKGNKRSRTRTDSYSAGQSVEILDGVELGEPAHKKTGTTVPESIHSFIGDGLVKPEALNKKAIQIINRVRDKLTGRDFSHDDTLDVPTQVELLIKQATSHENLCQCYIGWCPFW

Row | IC50 [1] | IC50 [2] | Structure (SMILES)
1 | 2.7 nM | – | C[C@H]1COCCN1c1cc(C2(S(C)(=O)=O)CC2)nc(-c2ccc(NC(=O)Nc3ccc(F)cc3)cc2)n1 [Example 2p, 3-(4-fluorophenyl)-1-[4-[4-[(3S)-3-methylmorpholin-4-yl]-6-(1-methylsulfonylcyclopropyl)pyrimidin-2-yl]phenyl]urea]
2 | 1 nM | 0.379 nM | C[C@H]1COCCN1c1cc(C2(S(C)(=O)=O)CC2)nc(-c2ccc(NC(=O)Nc3ccc(F)c(F)c3)cc2)n1 [Example 2q, 3-(3,4-difluorophenyl)-1-[4-[4-[(3S)-3-methylmorpholin-4-yl]-6-(1-methylsulfonylcyclopropyl)pyrimidin-2-yl]phenyl]urea]
3 | 0.66 nM | 1.03 nM | Cc1ccc(NC(=O)Nc2ccc(-c3nc(N4CCOC[C@@H]4C)cc(C4(S(C)(=O)=O)CC4)n3)cc2)cc1 [Example 2r, 1-[4-[4-[(3S)-3-methylmorpholin-4-yl]-6-(1-methylsulfonylcyclopropyl)pyrimidin-2-yl]phenyl]-3-(4-methylphenyl)urea]
4 | 1.38 nM | 1.55 nM | C[C@H]1COCCN1c1cc(C2(S(C)(=O)=O)CC2)nc(-c2ccc(NC(=O)Nc3ccc(Cl)cc3)cc2)n1 [Example 2s, 3-(4-chlorophenyl)-1-[4-[4-[(3S)-3-methylmorpholin-4-yl]-6-(1-methylsulfonylcyclopropyl)pyrimidin-2-yl]phenyl]urea]
5 | 1.45 nM | 0.656 nM | COc1ccc(NC(=O)Nc2ccc(-c3nc(N4CCOC[C@@H]4C)cc(C4(S(C)(=O)=O)CC4)n3)cc2)cc1 [Example 2t, 3-(4-methoxyphenyl)-1-[4-[4-[(3S)-3-methylmorpholin-4-yl]-6-(1-methylsulfonylcyclopropyl)pyrimidin-2-yl]phenyl]urea]
6 | 1.18 nM | – | Cc1cc(NC(=O)Nc2ccc(-c3nc(N4CCOC[C@@H]4C)cc(C4(S(C)(=O)=O)CC4)n3)cc2)no1 [Example 2u, 1-[4-[4-[(3S)-3-methylmorpholin-4-yl]-6-(1-methylsulfonylcyclopropyl)pyrimidin-2-yl]phenyl]-3-(5-methyl-1,2-oxazol-3-yl)urea]
7 | 8.66 nM | – | C[C@H]1COCCN1c1cc(C2(S(C)(=O)=O)CC2)nc(-c2ccc(NC(=O)Nc3ccc(F)cn3)cc2)n1 [Example 2v, 3-(5-fluoropyridin-2-yl)-1-[4-[4-[(3S)-3-methylmorpholin-4-yl]-6-(1-methylsulfonylcyclopropyl)pyrimidin-2-yl]phenyl]urea]
8 | 68.5 nM | – | C[C@H]1COCCN1c1cc(C2(S(C)(=O)=O)CC2)nc(-c2ccc(NC(=O)NCC(C)(C)CO)cc2)n1 [Example 2w, 3-(3-hydroxy-2,2-dimethylpropyl)-1-[4-[4-[(3S)-3-methylmorpholin-4-yl]-6-(1-methylsulfonylcyclopropyl)pyrimidin-2-yl]phenyl]urea]
9 | 1.64 nM | – | C[C@H]1COCCN1c1cc(C2(S(C)(=O)=O)CC2)nc(-c2ccc(NC(=O)NCCC#N)cc2)n1 [Example 2x, 3-(2-cyanoethyl)-1-[4-[4-[(3S)-3-methylmorpholin-4-yl]-6-(1-methylsulfonylcyclopropyl)pyrimidin-2-yl]phenyl]urea]
10 | 230 nM | – | C[C@H]1COCCN1c1cc(C2(S(C)(=O)=O)CC2)nc(-c2ccc(NC(=O)NCCN3CCCC3)cc2)n1 [Example 2y, 1-[4-[4-[(3S)-3-methylmorpholin-4-yl]-6-(1-methylsulfonylcyclopropyl)pyrimidin-2-yl]phenyl]-3-(2-pyrrolidin-1-ylethyl)urea]
11 | 18.1 nM | – | C[C@H]1COCCN1c1cc(C2(S(C)(=O)=O)CC2)nc(-c2ccc(NC(=O)NCC(O)C(F)(F)F)cc2)n1 (stereo partly drawn) [Example 2z, 1-[4-[4-[(3S)-3-methylmorpholin-4-yl]-6-(1-methylsulfonylcyclopropyl)pyrimidin-2-yl]phenyl]-3-(3,3,3-trifluoro-2-hydroxypropyl)urea]
12 | 4.45 nM | – | C[C@H]1COCCN1c1cc(C2(S(=O)(=O)C3CC3)CC2)nc(-c2ccc(NC(=O)NC3CCC3)cc2)n1 [Example 3a, 3-cyclobutyl-1-[4-[4-(1-cyclopropylsulfonylcyclopropyl)-6-[(3S)-3-methylmorpholin-4-yl]pyrimidin-2-yl]phenyl]urea]
13 | 3.85 nM | – | C[C@H]1COCCN1c1cc(C2(S(=O)(=O)C3CC3)CC2)nc(-c2ccc(NC(=O)Nc3ccccn3)cc2)n1 [Example 3b, 1-[4-[4-(1-cyclopropylsulfonylcyclopropyl)-6-[(3S)-3-methylmorpholin-4-yl]pyrimidin-2-yl]phenyl]-3-pyridin-2-yl-urea]
14 | 12.4 nM | – | CC(C)CNC(=O)Nc1ccc(-c2nc(N3CCOC[C@@H]3C)cc(C3(S(=O)(=O)C4CC4)CC3)n2)cc1 [Example 3c, 1-[4-[4-(1-cyclopropylsulfonylcyclopropyl)-6-[(3S)-3-methylmorpholin-4-yl]pyrimidin-2-yl]phenyl]-3-(2-methylpropyl)urea]
15 | 13.5 nM | – | CC(C)NC(=O)Nc1ccc(-c2nc(N3CCOC[C@@H]3C)cc(C3(S(=O)(=O)C4CC4)CC3)n2)cc1 [Example 3d, 1-[4-[4-(1-cyclopropylsulfonylcyclopropyl)-6-[(3S)-3-methylmorpholin-4-yl]pyrimidin-2-yl]phenyl]-3-propan-2-yl-urea]
16 | 1.66 nM | – | CCNC(=O)Nc1ccc(-c2nc(N3CCOC[C@@H]3C)cc(C3(S(=O)(=O)C4CC4)CC3)n2)cc1 [Example 3e, 3-[4-[4-(1-cyclopropylsulfonylcyclopropyl)-6-[(3S)-3-methylmorpholin-4-yl]pyrimidin-2-yl]phenyl]-1-ethyl-urea]
17 | 21.4 nM | – | C[C@H]1COCCN1c1cc(C2(S(=O)(=O)C3CC3)CC2)nc(-c2ccc(NC(=O)NCCN(C)C)cc2)n1 [Example 3f, 1-[4-[4-(1-cyclopropylsulfonylcyclopropyl)-6-[(3S)-3-methylmorpholin-4-yl]pyrimidin-2-yl]phenyl]-3-(2-dimethylaminoethyl)urea]
18 | 16.5 nM | – | CCCNC(=O)Nc1ccc(-c2nc(N3CCOC[C@@H]3C)cc(C3(S(=O)(=O)C4CC4)CC3)n2)cc1 [Example 3h, 3-[4-[4-(1-cyclopropylsulfonylcyclopropyl)-6-[(3S)-3-methylmorpholin-4-yl]pyrimidin-2-yl]phenyl]-1-propyl-urea]
19 | 0.932 nM | – | CNC(=O)Nc1ccc(-c2nc(N3CCOC[C@@H]3C)cc(C3(S(=O)(=O)C4CC4)CC3)n2)cc1 [Example 3i, 1-[4-[4-(1-cyclopropylsulfonylcyclopropyl)-6-[(3S)-3-methylmorpholin-4-yl]pyrimidin-2-yl]phenyl]-3-methyl-urea]
20 | 4.22 nM | – | C[C@H]1COCCN1c1cc(C2(S(=O)(=O)C3CC3)CC2)nc(-c2ccc(NC(=O)Nc3ccc(C(F)(F)F)cc3)cc2)n1 [Example 3j, 1-[4-[4-(1-cyclopropylsulfonylcyclopropyl)-6-[(3S)-3-methylmorpholin-4-yl]pyrimidin-2-yl]phenyl]-3-[4-(trifluoromethyl)phenyl]urea]
21 | 2.27 nM | – | C[C@H]1COCCN1c1cc(C2(S(=O)(=O)C3CC3)CC2)nc(-c2ccc(NC(=O)NC(C)(C)CO)cc2)n1 [Example 3k, 1-[4-[4-(1-cyclopropylsulfonylcyclopropyl)-6-[(3S)-3-methylmorpholin-4-yl]pyrimidin-2-yl]phenyl]-3-(1-hydroxy-2-methyl-propan-2-yl)urea]
22 | 2.57 nM | – | C[C@H]1COCCN1c1cc(C2(S(=O)(=O)C3CC3)CC2)nc(-c2ccc(NC(=O)NCCCO)cc2)n1 [Example 3l, 1-[4-[4-(1-cyclopropylsulfonylcyclopropyl)-6-[(3S)-3-methylmorpholin-4-yl]pyrimidin-2-yl]phenyl]-3-(3-hydroxypropyl)urea]
23 | 0.497 nM | – | C[C@H]1COCCN1c1cc(C2(S(=O)(=O)C3CC3)CC2)nc(-c2ccc(NC(=O)Nc3cnn(C)c3)cc2)n1 [Example 3m, 1-[4-[4-(1-cyclopropylsulfonylcyclopropyl)-6-[(3S)-3-methylmorpholin-4-yl]pyrimidin-2-yl]phenyl]-3-(1-methylpyrazol-4-yl)urea]
24 | 39.6 nM | – | C[C@H]1COCCN1c1cc(C2(S(=O)(=O)C3CC3)CC2)nc(-c2ccc(NC(=O)NCC(C)(C)CO)cc2)n1 [Example 3n, 1-[4-[4-(1-cyclopropylsulfonylcyclopropyl)-6-[(3S)-3-methylmorpholin-4-yl]pyrimidin-2-yl]phenyl]-3-(3-hydroxy-2,2-dimethylpropyl)urea]
